US7250442B2, “Dihydroindol-2-one derivatives as steroid hormone nuclear receptor modulators” (Eli Lilly and Company, priority 2003, dated 2007)

Target: T1, glucocorticoid receptor (Homo sapiens, UniProt P04150)
T1 construct: host or cells: A549 human lung epithelial cells (sonicated cell extract)
T1 sequence (P04150 1-777): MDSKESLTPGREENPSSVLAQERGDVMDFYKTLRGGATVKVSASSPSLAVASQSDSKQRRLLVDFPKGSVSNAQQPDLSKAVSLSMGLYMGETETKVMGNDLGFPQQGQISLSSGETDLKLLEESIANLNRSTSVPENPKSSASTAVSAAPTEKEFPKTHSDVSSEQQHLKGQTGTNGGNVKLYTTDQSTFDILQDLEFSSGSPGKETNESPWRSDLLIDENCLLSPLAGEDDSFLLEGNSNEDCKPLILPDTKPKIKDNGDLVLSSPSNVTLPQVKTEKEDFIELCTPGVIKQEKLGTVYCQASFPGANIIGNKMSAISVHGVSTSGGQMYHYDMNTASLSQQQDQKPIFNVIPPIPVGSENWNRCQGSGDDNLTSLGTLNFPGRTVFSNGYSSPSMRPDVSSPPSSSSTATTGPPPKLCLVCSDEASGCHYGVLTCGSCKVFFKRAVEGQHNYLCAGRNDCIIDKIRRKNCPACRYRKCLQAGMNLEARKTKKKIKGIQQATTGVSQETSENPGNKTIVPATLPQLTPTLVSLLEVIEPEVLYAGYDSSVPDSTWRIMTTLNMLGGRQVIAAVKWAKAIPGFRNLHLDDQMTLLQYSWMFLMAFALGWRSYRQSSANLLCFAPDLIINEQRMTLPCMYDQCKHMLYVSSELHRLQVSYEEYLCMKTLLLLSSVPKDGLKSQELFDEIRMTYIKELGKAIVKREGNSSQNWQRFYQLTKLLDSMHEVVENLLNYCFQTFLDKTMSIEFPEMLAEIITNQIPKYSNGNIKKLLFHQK
Experiment: Glucocorticoid Receptor Binding Assay ([3H]-dexamethasone displacement, A549 cell extract)
Conditions: A549 human lung epithelial cell extract, 1.86 nM [3H]-dexamethasone; read-out: GR Ki
Outline: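 A549 cell extract (50-200 ug; buffer 50 mM Tris-HCl pH 7.2 with glycerol, NaCl, MgCl2, EDTA, 10 mM molybdate) incubated with 1.86 nM [3H]-dexamethasone and test compound, 16 h at 4 °C. Unbound ligand removed with dextran-coated charcoal; bound radioactivity counted. IC50 converted to Ki via Cheng-Prusoff.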

Compound	Ki [nM]
COc1ccc(-c2noc(CN3C(=O)C(c4cc(C)c(O)c(C)c4)(c4cc(C)c(O)c(C)c4)c4ccccc43)n2)cc1 [Example 142, 3,3-Bis-(4-hydroxy-3,5-dimethyl-phenyl)-1-[3-(4-methoxy-phenyl)-[1,2,4]oxadiazol-5-ylmethyl]-1,3-dihydro-indol-2-one]	≤ 1000
COc1nccc(N2C(=O)C(c3cc(C)c(O)c(C)c3)(c3cc(C)c(O)c(C)c3)c3ccccc32)n1 [Example 143, 3,3-Bis-(4-hydroxy-3,5-dimethyl-phenyl)-1-(2-methoxy-pyrimidin-4-yl)-1,3-dihydro-indol-2-one]	≤ 500
